Like-named read-outs stand apart in the source and are kept apart here.
Assays:
EPHA3 = EPHA3 (Homo sapiens, UniProt P29320); conditions: 1 µM; binder
LIMK2 = LIMK2 (Homo sapiens, UniProt P53671); conditions: 1 µM; binder
PRKX = PRKX (Homo sapiens, UniProt P51817); conditions: 1 µM; binder
CDK7 = CDK7 (Homo sapiens, UniProt P50613); conditions: 1 µM; binder
JNK3 = JNK3 (Homo sapiens, UniProt P53779); conditions: 1 µM; binder
MAP4K4 = MAP4K4 (Homo sapiens, UniProt O95819); conditions: 1 µM; binder
GRK3 = GRK3 (Homo sapiens, UniProt P35626); conditions: 1 µM; binder
JAK1 = JAK1 (Homo sapiens, UniProt P23458); conditions: binder
Chain of JAK1 (P23458 whole entry): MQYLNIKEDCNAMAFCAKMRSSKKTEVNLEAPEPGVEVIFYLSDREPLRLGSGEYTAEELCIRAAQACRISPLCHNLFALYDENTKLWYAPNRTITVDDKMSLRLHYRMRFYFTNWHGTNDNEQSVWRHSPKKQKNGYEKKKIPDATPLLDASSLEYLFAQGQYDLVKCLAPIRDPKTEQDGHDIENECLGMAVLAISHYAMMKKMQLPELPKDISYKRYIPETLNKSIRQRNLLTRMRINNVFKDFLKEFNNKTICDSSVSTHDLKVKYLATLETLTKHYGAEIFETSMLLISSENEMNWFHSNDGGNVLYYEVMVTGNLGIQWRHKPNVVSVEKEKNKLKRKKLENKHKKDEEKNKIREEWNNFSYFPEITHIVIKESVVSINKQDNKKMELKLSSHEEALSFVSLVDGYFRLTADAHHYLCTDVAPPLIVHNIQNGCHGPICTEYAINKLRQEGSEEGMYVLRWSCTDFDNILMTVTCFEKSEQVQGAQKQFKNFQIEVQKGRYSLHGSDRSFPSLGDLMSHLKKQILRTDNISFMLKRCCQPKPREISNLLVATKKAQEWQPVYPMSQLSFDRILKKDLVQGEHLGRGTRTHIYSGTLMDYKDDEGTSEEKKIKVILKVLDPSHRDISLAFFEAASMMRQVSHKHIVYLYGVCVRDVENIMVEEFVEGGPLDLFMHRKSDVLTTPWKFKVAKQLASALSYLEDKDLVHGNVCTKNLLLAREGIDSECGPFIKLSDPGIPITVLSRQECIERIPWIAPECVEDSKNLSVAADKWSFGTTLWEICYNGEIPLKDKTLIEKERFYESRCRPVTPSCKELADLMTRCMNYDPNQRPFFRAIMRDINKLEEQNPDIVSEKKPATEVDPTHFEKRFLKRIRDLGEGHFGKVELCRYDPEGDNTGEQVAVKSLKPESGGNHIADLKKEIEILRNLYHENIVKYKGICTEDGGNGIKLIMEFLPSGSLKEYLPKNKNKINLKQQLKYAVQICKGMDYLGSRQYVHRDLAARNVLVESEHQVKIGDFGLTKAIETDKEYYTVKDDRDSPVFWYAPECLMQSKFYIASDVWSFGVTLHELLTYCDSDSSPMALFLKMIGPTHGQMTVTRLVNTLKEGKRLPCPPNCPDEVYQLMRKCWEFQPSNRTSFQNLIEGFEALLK

PHKG2 = PHKG2 (Homo sapiens, UniProt P15735); conditions: 1 µM; binder
Chain of PHKG2 (P15735 whole entry): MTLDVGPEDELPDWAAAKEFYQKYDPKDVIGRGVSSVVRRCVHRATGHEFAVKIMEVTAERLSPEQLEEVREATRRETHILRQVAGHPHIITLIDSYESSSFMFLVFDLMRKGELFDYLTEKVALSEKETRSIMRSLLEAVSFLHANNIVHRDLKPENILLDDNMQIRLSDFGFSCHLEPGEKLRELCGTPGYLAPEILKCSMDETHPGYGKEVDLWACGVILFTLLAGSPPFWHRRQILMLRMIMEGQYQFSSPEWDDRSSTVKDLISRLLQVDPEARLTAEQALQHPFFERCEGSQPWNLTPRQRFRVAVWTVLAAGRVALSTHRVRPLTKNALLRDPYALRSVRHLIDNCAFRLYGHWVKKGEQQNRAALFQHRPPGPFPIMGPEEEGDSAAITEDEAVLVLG

EGFR(T790M) = EGFR(T790M) (Homo sapiens, UniProt P00533, T790M); conditions: 1 µM; binder
ROCK2 = ROCK2 (Homo sapiens, UniProt O75116); conditions: 1 µM; binder
BIKE = BIKE (Homo sapiens, UniProt Q9NSY1); conditions: 1 µM; binder
MELK = MELK (Homo sapiens, UniProt Q14680); conditions: 1 µM; binder
EGFR(L858R) = EGFR(L858R) (Homo sapiens, UniProt P00533, L858R); conditions: 1 µM; binder
MAK = MAK (Homo sapiens, UniProt P20794); conditions: 1 µM; binder
HUNK = HUNK (Homo sapiens, UniProt P57058); conditions: 1 µM; binder
CSNK2A2 = CSNK2A2 (Homo sapiens, UniProt P19784); conditions: 1 µM; binder
TIE1 = TIE1 (Homo sapiens, UniProt P35590); conditions: 1 µM; binder
CDK4 = CDK4 (Homo sapiens, UniProt P11802); conditions: 1 µM; binder
CAMK2D = CAMK2D (Homo sapiens, UniProt Q13557); conditions: 1 µM; binder
Chain of CAMK2D (Q13557 whole entry): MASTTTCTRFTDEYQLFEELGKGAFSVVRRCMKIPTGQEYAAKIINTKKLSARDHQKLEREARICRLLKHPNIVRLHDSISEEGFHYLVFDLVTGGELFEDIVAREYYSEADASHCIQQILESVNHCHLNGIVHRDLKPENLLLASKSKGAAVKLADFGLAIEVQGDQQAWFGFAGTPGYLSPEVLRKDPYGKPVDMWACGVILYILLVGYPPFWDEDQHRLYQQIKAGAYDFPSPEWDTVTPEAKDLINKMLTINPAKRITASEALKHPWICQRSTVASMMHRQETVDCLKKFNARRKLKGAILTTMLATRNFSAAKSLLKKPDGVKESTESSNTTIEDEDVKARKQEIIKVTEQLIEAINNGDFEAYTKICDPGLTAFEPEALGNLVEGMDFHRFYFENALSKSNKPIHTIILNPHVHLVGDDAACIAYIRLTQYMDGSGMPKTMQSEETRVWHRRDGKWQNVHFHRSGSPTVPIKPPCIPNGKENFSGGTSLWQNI

MYLK4 = MYLK4 (Homo sapiens, UniProt Q86YV6); conditions: 1 µM; binder
RPS6KA6 = RPS6KA6 (Homo sapiens, UniProt Q9UK32); conditions: binder
Chain of RPS6KA6 (Q9UK32 whole entry): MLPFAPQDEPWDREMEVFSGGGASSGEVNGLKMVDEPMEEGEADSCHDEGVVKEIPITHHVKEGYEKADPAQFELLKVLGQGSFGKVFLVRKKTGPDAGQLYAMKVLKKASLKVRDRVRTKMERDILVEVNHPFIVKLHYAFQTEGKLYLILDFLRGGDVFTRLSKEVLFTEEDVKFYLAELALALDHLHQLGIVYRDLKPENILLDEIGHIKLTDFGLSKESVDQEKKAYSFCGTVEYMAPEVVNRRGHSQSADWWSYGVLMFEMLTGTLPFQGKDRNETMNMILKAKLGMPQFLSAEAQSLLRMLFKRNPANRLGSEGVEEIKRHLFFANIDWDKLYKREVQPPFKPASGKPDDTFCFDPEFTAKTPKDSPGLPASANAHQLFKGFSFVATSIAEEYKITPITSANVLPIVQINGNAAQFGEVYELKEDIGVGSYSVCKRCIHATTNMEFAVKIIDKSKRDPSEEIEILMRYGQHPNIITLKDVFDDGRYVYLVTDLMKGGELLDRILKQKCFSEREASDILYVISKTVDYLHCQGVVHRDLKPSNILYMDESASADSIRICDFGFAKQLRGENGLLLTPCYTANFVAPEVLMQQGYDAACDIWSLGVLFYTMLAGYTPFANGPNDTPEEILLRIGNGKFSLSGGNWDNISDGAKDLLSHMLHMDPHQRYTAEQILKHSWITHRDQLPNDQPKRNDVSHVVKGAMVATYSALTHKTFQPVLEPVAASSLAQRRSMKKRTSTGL

PIK3CA(E545A) = PIK3CA(E545A) (Homo sapiens, UniProt P42336, E545A); conditions: 1 µM; binder
MAP4K3 = MAP4K3 (Homo sapiens, UniProt Q8IVH8); conditions: 1 µM; binder
ABL2 = ABL2 (Homo sapiens, UniProt P42684); conditions: 1 µM; binder
Chain of ABL2 (P42684 whole entry): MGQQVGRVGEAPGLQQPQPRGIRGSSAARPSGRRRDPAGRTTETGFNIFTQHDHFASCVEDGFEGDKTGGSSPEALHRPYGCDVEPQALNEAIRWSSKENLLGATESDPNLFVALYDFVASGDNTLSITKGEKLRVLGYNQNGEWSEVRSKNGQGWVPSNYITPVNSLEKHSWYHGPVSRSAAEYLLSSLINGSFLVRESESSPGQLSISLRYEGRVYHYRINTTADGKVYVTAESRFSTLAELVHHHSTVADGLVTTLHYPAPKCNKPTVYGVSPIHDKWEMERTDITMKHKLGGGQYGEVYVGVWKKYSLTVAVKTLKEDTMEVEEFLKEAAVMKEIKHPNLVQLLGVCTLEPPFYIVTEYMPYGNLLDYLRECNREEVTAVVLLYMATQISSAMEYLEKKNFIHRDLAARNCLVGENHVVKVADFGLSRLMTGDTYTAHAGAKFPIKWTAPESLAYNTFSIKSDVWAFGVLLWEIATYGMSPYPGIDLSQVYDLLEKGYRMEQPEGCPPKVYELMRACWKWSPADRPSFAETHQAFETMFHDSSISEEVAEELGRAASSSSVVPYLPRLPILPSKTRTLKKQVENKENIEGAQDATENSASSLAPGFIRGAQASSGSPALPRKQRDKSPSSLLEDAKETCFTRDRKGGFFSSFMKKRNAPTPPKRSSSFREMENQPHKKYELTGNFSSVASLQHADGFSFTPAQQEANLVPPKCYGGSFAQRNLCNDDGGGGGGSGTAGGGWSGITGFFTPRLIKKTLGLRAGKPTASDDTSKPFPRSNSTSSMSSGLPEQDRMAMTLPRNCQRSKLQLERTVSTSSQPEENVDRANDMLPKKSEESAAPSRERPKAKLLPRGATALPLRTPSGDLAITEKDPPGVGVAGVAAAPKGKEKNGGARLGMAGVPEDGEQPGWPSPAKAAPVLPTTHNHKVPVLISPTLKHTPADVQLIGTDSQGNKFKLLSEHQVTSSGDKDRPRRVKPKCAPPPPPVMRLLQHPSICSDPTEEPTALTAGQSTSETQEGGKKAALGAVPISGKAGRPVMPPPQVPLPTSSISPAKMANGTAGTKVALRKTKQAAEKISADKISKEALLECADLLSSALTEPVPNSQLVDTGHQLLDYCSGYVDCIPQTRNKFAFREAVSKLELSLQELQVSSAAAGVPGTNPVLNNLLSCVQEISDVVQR

MEK1 = MEK1 (Homo sapiens, UniProt Q02750); conditions: 1 µM; binder
Chain of MEK1 (Q02750 whole entry): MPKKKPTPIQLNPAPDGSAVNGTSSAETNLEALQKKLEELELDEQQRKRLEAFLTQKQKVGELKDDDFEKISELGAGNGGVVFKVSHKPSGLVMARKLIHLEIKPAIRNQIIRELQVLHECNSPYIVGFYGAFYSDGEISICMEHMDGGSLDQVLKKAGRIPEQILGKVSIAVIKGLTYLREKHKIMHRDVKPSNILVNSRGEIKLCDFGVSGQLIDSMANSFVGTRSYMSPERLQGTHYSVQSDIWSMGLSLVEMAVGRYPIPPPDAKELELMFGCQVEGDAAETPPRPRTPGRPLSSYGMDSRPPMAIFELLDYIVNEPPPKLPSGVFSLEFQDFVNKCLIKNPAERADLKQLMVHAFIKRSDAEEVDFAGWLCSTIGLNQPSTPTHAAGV

PIM2 = PIM2 (Homo sapiens, UniProt Q9P1W9); conditions: 1 µM; binder
EPHA2 = EPHA2 (Homo sapiens, UniProt P29317); conditions: 1 µM; binder
WEE1 = WEE1 (Homo sapiens, UniProt P30291); conditions: 1 µM; binder
CAMK2G = CAMK2G (Homo sapiens, UniProt Q13555); conditions: 1 µM; binder
Chain of CAMK2G (Q13555 whole entry): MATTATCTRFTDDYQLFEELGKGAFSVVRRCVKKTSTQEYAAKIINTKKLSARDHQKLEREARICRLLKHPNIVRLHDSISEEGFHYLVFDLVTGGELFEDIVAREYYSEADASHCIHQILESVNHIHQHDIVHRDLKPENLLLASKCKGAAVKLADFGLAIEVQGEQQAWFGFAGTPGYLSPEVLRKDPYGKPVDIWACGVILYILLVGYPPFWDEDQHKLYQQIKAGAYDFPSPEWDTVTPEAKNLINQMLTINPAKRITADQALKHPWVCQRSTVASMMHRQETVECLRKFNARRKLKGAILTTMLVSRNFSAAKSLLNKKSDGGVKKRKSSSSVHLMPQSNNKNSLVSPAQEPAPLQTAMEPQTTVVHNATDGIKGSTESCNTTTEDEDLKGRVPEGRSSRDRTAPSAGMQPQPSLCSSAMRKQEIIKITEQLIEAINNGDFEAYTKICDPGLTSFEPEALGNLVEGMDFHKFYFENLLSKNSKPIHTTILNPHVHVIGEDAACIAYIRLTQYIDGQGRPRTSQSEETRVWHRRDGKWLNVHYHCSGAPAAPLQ

CNc1ncc2cc(-c3ccc(-c4cccc(C)n4)cc3Cl)c(=O)n(C[C@H]3OC[C@H](N)CO3)c2n1 [compound 6, G-5555]
Percent Control (EPHA3): 88% | Percent Control (LIMK2): 100% | Percent Control (PRKX): 100% | Percent Control (CDK7): 86% | Percent Control (JNK3): 87% | Percent Control (MAP4K4): 100% | Percent Control (GRK3): 72% | Percent Control (JAK1; JH1 domain catalytic): 100% | Percent Control (JAK1; JH2 domain pseudokinase, 1 µM): 92% | Percent Control (PHKG2): 100% | Percent Control (EGFR(T790M)): 85% | Percent Control (ROCK2): 90% | Percent Control (BIKE): 100% | Percent Control (MELK): 47% | Percent Control (EGFR(L858R)): 85% | Percent Control (MAK): 100% | Percent Control (HUNK): 100% | Percent Control (CSNK2A2): 95% | Percent Control (TIE1): 94% | Percent Control (CDK4): 100% | Percent Control (CAMK2D): 100% | Percent Control (MYLK4): 100% | Percent Control (RPS6KA6; Kin.Dom.1 N-terminal): 95% | Percent Control (RPS6KA6; Kin.Dom.2 C-terminal, 1 µM): 92% | Percent Control (PIK3CA(E545A)): 90% | Percent Control (MAP4K3): 23% | Percent Control (ABL2): 100% | Percent Control (MEK1): 1% | Percent Control (PIM2): 100% | Percent Control (EPHA2): 100% | Percent Control (WEE1): 100% | Percent Control (CAMK2G): 100%
